Data taken from the supplement of paper PMC10307832.

How the values were obtained:
Experiment in all cases: relative viability (nuclei count vs DMSO), 5 days (fraction); higher = more cells survive
[1] = compound: C[C@@]1(C(=O)Nc2ccc(F)nc2)CCCN1c1nc(Nc2cc(C3CC3)n[nH]2)c2cccn2n1 + CS(=O)(=O)CCNCc1ccc(-c2ccc3ncnc(Nc4ccc(OCc5cccc(F)c5)c(Cl)c4)c3c2)o1 [Lapatinib] (partner 2 µM)
Method in brief: (§1)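 Values are medians from duplicate plates. Each reflects relative viability, defined as the nuclei count of treated wells over that of vehicle wells. Lung cancer cell lines in 1536-well plates were pin-tool dosed one day after seeding with one drug alone or with a fixed anchor-drug dose plus five library-drug doses (not always all listed) in √10 steps, then fixed, stained and imaged at 4× after 5 days.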

[2] = compound: CC1(C)CNc2cc(NC(=O)c3cccnc3NCc3ccncc3)ccc21 [Motesanib] + N=C(N)NC(=N)NCCc1ccccc1 [Phenformin] (partner 250 µM)
Method in brief: as §1

[3] = compound: CC1(C)CNc2cc(NC(=O)c3cccnc3NCc3ccncc3)ccc21 [Motesanib] + Cc1cc(Nc2cc(N3CCN(C)CC3)nc(Sc3ccc(NC(=O)C4CC4)cc3)n2)n[nH]1 [Tozasertib] (partner 0.1 µM)
Method in brief: as §1

[4] = compound: C[C@@]1(C(=O)Nc2ccc(F)nc2)CCCN1c1nc(Nc2cc(C3CC3)n[nH]2)c2cccn2n1 + CC(C)C[C@H](NC(=O)[C@H](Cc1ccccc1)NC(=O)c1cnccn1)B(O)O [Bortezomib] (partner 0.002 µM)
Method in brief: as §1

Cell Line	relative viability ([1]; first compound 0.04 µM)	relative viability ([1]; first compound 0.1265 µM)	relative viability ([1]; first compound 0.4 µM)	relative viability ([1]; first compound 1.265 µM)	relative viability ([2]; first compound 0.01 µM)	relative viability ([2]; first compound 0.03162 µM)	relative viability ([2]; first compound 0.1 µM)	relative viability ([2]; first compound 0.3162 µM)	relative viability ([2]; first compound 1 µM)	relative viability ([3]; first compound 0.01 µM)	relative viability ([3]; first compound 0.03162 µM)	relative viability ([3]; first compound 0.1 µM)	relative viability ([3]; first compound 0.3162 µM)	relative viability ([3]; first compound 1 µM)	relative viability ([4]; first compound 0.04 µM)	relative viability ([4]; first compound 0.1265 µM)	relative viability ([4]; first compound 0.4 µM)	relative viability ([4]; first compound 1.265 µM)
201T	1.05	0.91	0.717	0.862	0.377	0.44	0.485	0.48	0.427	0.888	0.833	1.05	0.923	0.97	1.1	0.958	1.01	0.957
A549	0.648	0.477	0.348	0.103	0.0998	0.109	0.165	0.178	0.247									
A-427	1.04	0.934	1.09	1.08	0.239	0.294	0.319	0.374	0.323	0.185	0.191	0.24	0.236	0.173	1	0.995	0.897	1.01
ABC-1	1.14	1.59	0.752	0.633	0.238	0.229	0.223	0.229	0.242	0.174	0.188	0.226	0.197	0.149	0.329	0.318	0.264	0.183
BEN	0.712	0.729	0.765	0.698	0.257	0.259	0.229	0.253	0.272	0.505	0.529	0.627	0.547	0.543	1.11	0.785	0.815	0.903
CAL-12T	0.8	0.442	0.564	0.555	0.562	0.487	0.61	0.627	0.534	0.348	0.254	0.351	0.384	0.371	1.12	0.826	0.957	0.734
COR-L23	1.12	0.957	0.994	0.423	0.468	0.456	0.494	0.531	0.43	0.238	0.141	0.456	0.193	0.191	1.06	1.01	0.936	0.583
COR-L 105	0.344	0.324	0.28	0.233	0.485	0.499	0.538	0.573	0.463	0.341	0.33	0.327	0.381	0.345	0.709	0.631	0.415	0.373
Calu-6	1.14	1.08	0.95	0.693											1.01	0.957	0.929	0.359
ChaGo-K-1					0.473	0.436	0.509	0.499	0.528	0.236	0.237	0.219	0.252	0.22	1.01	0.797	1.1	0.824
EBC-1	0.208	0.19	0.239	0.205											0.527	0.509	0.52	0.302
EKVX	0.184	0.162	0.137	0.133	0.225	0.231	0.242	0.248	0.24	0.368	0.381	0.356	0.432	0.422	1.01	1.05	0.796	0.926
EMC-BAC-2	0.856	0.671	0.572	0.622	0.527	0.507	0.581	0.56	0.539	0.286	0.238	0.351	0.309	0.281	0.948	0.871	0.804	0.78
EPLC-272H	0.885	0.668	0.601	0.72	0.253	0.333		0.338	0.247	0.293	0.234		0.253	0.253	0.859	0.78	0.702	0.878
H3255	0.243	0.291	0.226	0.155	0.357	0.367	0.364	0.394	0.35	0.549	0.671	0.742	0.513	0.608	0.973	1.02	0.719	0.669
HARA	0.409	0.466	0.248	0.244	0.479	0.433	0.435	0.431	0.359	0.117	0.0896	0.097	0.133	0.0863	1.11	1.12	0.684	1.05
HCC-15	0.839	0.743	0.746	0.739	0.416	0.376	0.497	0.527	0.503	0.454	0.278	0.372	0.451	0.392	0.943	0.742	0.881	1
HCC-44	0.894	0.794	0.647	0.688	0.129	0.174	0.252	0.309	0.209	0.944	0.721	0.941	0.998	0.974	0.862	0.81	0.648	0.685
HCC-78	0.826	0.476	0.186	0.186	0.605	0.73	0.715	0.822	0.707	0.486	0.373	0.476	0.355	0.403	0.445	0.855	0.293	0.317

Cell Line	relative viability ([1]; first compound 0.04 µM)	relative viability ([1]; first compound 0.1265 µM)	relative viability ([1]; first compound 0.4 µM)	relative viability ([1]; first compound 1.265 µM)	relative viability ([2]; first compound 0.01 µM)	relative viability ([2]; first compound 0.03162 µM)	relative viability ([2]; first compound 0.1 µM)	relative viability ([2]; first compound 0.3162 µM)	relative viability ([2]; first compound 1 µM)	relative viability ([3]; first compound 0.01 µM)	relative viability ([3]; first compound 0.03162 µM)	relative viability ([3]; first compound 0.1 µM)	relative viability ([3]; first compound 0.3162 µM)	relative viability ([3]; first compound 1 µM)	relative viability ([4]; first compound 0.04 µM)	relative viability ([4]; first compound 0.1265 µM)	relative viability ([4]; first compound 0.4 µM)	relative viability ([4]; first compound 1.265 µM)
IA-LM	0.702	0.935	0.647	0.601											0.844	0.933	0.807	0.48
LCLC-103H					0.338	0.298	0.294	0.369	0.37	0.489	0.341	0.47	0.442	0.551	1.07	1.08	0.788	0.958
LK-2		1.16	0.584	0.713	0.372	0.39		0.538	0.549	0.177	0.163		0.163	0.181				
NCI-H358	0.304	0.22	0.259	0.251	0.384	0.414	0.331	0.418	0.468	0.103	0.103	0.104	0.103	0.107				
NCI-H441					0.895	0.873	0.845	0.913	0.822	0.675	0.518	0.66	0.543	0.578	0.567	0.285	0.276	0.463
NCI-H522					0.644	0.634	0.581	0.582	0.667	0.629	0.546	0.611	0.566	0.595				
NCI-H1299	1.01	1.03	0.964	0.967											1.05	0.975	1.03	1.03
NCI-H1395	1.17	0.86	0.885	0.988	0.437	0.431	0.406	0.543	0.433	0.777	0.779	0.816	0.757	0.773				
NCI-H1563	1.1	0.921	0.755	0.723	0.617	0.598	0.697	0.715	0.655						0.853	0.826	0.73	0.747
NCI-H1623					0.551	0.613	0.594	0.617	0.578	0.414	0.426	0.457	0.425	0.475				
NCI-H1648										0.307	0.367	0.281	0.528	0.345				
NCI-H1703	0.996	0.867	0.898												0.349	0.328	0.415	0.237
NCI-H1792	0.82	0.412	0.546	0.696	0.202		0.367	0.258	0.243						0.868	0.825	0.651	0.506
NCI-H1793	0.801	0.469	0.568	0.53	0.295	0.313	0.307	0.39	0.362	0.37	0.268	0.422	0.321	0.302				
NCI-H1944	0.679	0.536	0.426	0.582	0.184	0.2	0.221	0.246	0.254	0.258	0.229	0.233	0.236	0.284				
NCI-H2170	0.245	0.258	0.283	0.271	0.469	0.359	0.447	0.489	0.409	0.64	0.679	0.709	0.832	0.659				
NCI-H2342					0.448	0.588	0.807	0.562	0.662	0.493	0.496	0.438	0.562	0.583				
SK-MES-1	0.477	0.438	0.364	0.448	0.624	0.588	0.714	0.703	0.658	0.822	0.91	0.958	0.935	0.922				
SW 900					0.58	0.599	0.552	0.621	0.739	0.599	0.524	0.66	0.51	0.638				
